# Experimental data reported in US6913760B2, “Drug delivery composition” (New England Medical Hospitals, Inc., priority 2001, dated 2005).
# Where “and” joins values, the source holds several entries; their conditions need not be identical. Identical values can stand only once. Marks after values point to notes of the source that are not given here.
# Tests used:
# rats [1] = assay: Tail flick test after intrathecal implantation of PLGA rods; format: in vivo; conditions: for % MPE, tail flick test, Average: average of 6 rats
# [2] = Drug release studies of PLGA 85:15 rods (Example 2); format: physicochemical
# rats [3] = assay: Paw withdrawal test after intrathecal implantation of PLGA rods; format: in vivo; conditions: for % MPE, paw withdrawal test, Average: average of 6 rats
# rats [4] = assay: Anesthesia after intrathecal polymeric implants, all sites tested (Example 2); format: in vivo; conditions: intrathecal rods
# [5] = trapezoidal method, individual rats
# [6] = trapezoidal method, mean of 6 rats
smiles,measurement,setting,value
C[C@@H](NC(=O)[C@@H](N)Cc1ccc(O)cc1)C(=O)NCC(=O)N[C@@H](Cc1ccccc1)C(=O)NNC(=O)[C@H](Cc1ccccc1)NC(=O)CNC(=O)[C@@H](C)NC(=O)[C@@H](N)Cc1ccc(O)cc1 [Biphalin],"% MPE, tail flick test, Average",rats [1]; 2h,86.67 % MPE
same,"% MPE, tail flick test","rats [1]; 2h after intrathecal implantation of PLGA rod, individual rats",80 % MPE and 96.46 % MPE and 86.99 % MPE and 84.66 % MPE and 76.49 % MPE and 95.43 % MPE
same,"% MPE, tail flick test, Average",rats [1]; 4h,91.63 % MPE
same,"% MPE, tail flick test","rats [1]; 4h, individual rats",85.6 % MPE and 83.65 % MPE and 91.6 % MPE and 100 % MPE (2×) and 88.92 % MPE
same,"Area under the curve (AUC), tail flick test","rats [1]; % MPE versus time in days, trapezoidal method, individual rats",280.84 and 263.66 and 251.97 and 276.26 and 343.10 and 236.51
same,"Area under the curve (AUC), tail flick test, Mean","rats [1]; % MPE versus time in days, trapezoidal method, mean of 6 rats",275.39 *
same,"% MPE, tail flick test, Average",rats [1]; D1,82.2 % MPE
same,"% MPE, tail flick test","rats [1]; D1, individual rats",84.8 % MPE and 71.9346 % MPE and 75.88 % MPE and 100 % MPE and 72.97 % MPE and 87.63 % MPE
same,"% MPE, tail flick test, Average",rats [1]; D2,73.13 % MPE
same,"% MPE, tail flick test","rats [1]; D2, individual rats",73.6 % MPE and 73.297 % MPE and 69.9187 % MPE and 90.48 % MPE and 55.14 % MPE and 76.34 % MPE
same,"% MPE, tail flick test, Average",rats [1]; D3,46.93 % MPE
same,"% MPE, tail flick test","rats [1]; D3, individual rats",32.53 % MPE and 35.15 % MPE and 36.59 % MPE and 73.54 % MPE and 50.27 % MPE and 53.49 % MPE
same,"% MPE, tail flick test, Average",rats [1]; D4,24 % MPE
same,"% MPE, tail flick test","rats [1]; D4, individual rats",22.67 % MPE and 20.16 % MPE and 31.17 % MPE and 33.33 % MPE and 21.08 % MPE and 15.5914 % MPE
same,"% MPE, tail flick test, Average",rats [1]; D5,9.086 % MPE
same,"% MPE, tail flick test","rats [1]; D5, individual rats",9.067 % MPE and 12.26 % MPE and 21.14 % MPE and 3.175 % MPE and 1.081 % MPE and 7.796 % MPE
same,"% MPE, tail flick test, Average",rats [1]; D6,2.009 % MPE
same,"% MPE, tail flick test","rats [1]; D6, individual rats",10.4 % MPE and 5.177 % MPE and 4.065 % MPE and 2.381 % MPE and −4.324 ^ % MPE and −5.645 ^ % MPE
same,release order,[2],two phases
same,"% MPE, paw withdrawal test, Average","rats [3]; 2h, L",100 % MPE
same,"% MPE, paw withdrawal test, Average","rats [3]; 2h, R",100 % MPE
same,"% MPE, paw withdrawal test","rats [3]; 2h, left (L) hind paw, individual rats",100 % MPE
same,"% MPE, paw withdrawal test","rats [3]; 2h, right (R) hind paw, individual rats",100 % MPE
same,"% MPE, paw withdrawal test, Average","rats [3]; 4h, L",100 % MPE
same,"% MPE, paw withdrawal test","rats [3]; 4h, L, individual rats",100 % MPE
same,"% MPE, paw withdrawal test, Average","rats [3]; 4h, R",100 % MPE
same,"% MPE, paw withdrawal test","rats [3]; 4h, R, individual rats",100 % MPE
same,"% MPE, paw withdrawal test, Average","rats [3]; D1, L",14.47 % MPE
same,"% MPE, paw withdrawal test","rats [3]; D1, L, individual rats",30.27 % MPE and 7.30 % MPE and −1.89 % MPE and 10.92 % MPE and 18.44 % MPE and 21.78 % MPE
same,"% MPE, paw withdrawal test, Average","rats [3]; D1, R",16.56 % MPE
same,"% MPE, paw withdrawal test","rats [3]; D1, R, individual rats",38.69 % MPE and 10.29 % MPE and −2.32 % MPE and 10.84 % MPE and 16.61 % MPE and 25.27 % MPE
same,"% MPE, paw withdrawal test, Average","rats [3]; D2, L",8.34 % MPE
same,"% MPE, paw withdrawal test","rats [3]; D2, L, individual rats",6.46 % MPE and 1.46 % MPE and −5.68 % MPE and 12.97 % MPE and 20.92 % MPE and 13.93 % MPE
same,"% MPE, paw withdrawal test, Average","rats [3]; D2, R",6.03 % MPE
same,"% MPE, paw withdrawal test","rats [3]; D2, R, individual rats",4.92 % MPE and 0.37 % MPE and −6.20 % MPE and 9.44 % MPE and 16.61 % MPE and 11.03 % MPE
same,"% MPE, paw withdrawal test, Average","rats [3]; D3, L",7.52 % MPE
same,"% MPE, paw withdrawal test","rats [3]; D3, L, individual rats",−2.04 % MPE and 10.58 % MPE and 12.12 % MPE and 17.06 % MPE and 12.06 % MPE and −4.64 % MPE
same,"% MPE, paw withdrawal test, Average","rats [3]; D3, R",8.40 % MPE
same,"% MPE, paw withdrawal test","rats [3]; D3, R, individual rats",7.54 % MPE and 9.92 % MPE and 9.30 % MPE and 13.64 % MPE and 11.07 % MPE and −1.07 % MPE
same,"% MPE, paw withdrawal test, Average","rats [3]; D4, L",1.86 % MPE
same,"% MPE, paw withdrawal test","rats [3]; D4, L, individual rats",2.27 % MPE and 11.94 % MPE and 2.84 % MPE and 2.14 % MPE and 0.34 % MPE and −8.39 % MPE
same,"% MPE, paw withdrawal test, Average","rats [3]; D4, R",1.02 % MPE
same,"% MPE, paw withdrawal test","rats [3]; D4, R, individual rats",−0.78 % MPE and 9.44 % MPE and 2.21 % MPE and −2.14 % MPE and 3.28 % MPE and −5.88 % MPE
same,"% MPE, paw withdrawal test, Average","rats [3]; D5, L",3.36 % MPE
same,"% MPE, paw withdrawal test","rats [3]; D5, L, individual rats",18.18 % MPE and 15.02 % MPE and 2.13 % MPE and −5 % MPE and 4.42 % MPE and −14.60 % MPE
same,"% MPE, paw withdrawal test, Average","rats [3]; D5, R",4.72 % MPE
same,"% MPE, paw withdrawal test","rats [3]; D5, R, individual rats",21.32 % MPE and 17.48 % MPE and 0.37 % MPE and −2.49 % MPE and 8.52 % MPE and −16.91 % MPE
same,"% MPE, paw withdrawal test, Average","rats [3]; D6, L",0.45 % MPE
same,"% MPE, paw withdrawal test","rats [3]; D6, L, individual rats",14.39 % MPE and 2.73 % MPE and −0.35 % MPE and −5.71 % MPE and −0.68 % MPE and −7.66 % MPE
same,"% MPE, paw withdrawal test, Average","rats [3]; D6, R",0.00 % MPE
same,"% MPE, paw withdrawal test","rats [3]; D6, R, individual rats",15.89 % MPE and 2.45 % MPE and −3.32 % MPE and −5.34 % MPE and 0.98 % MPE and −10.6 % MPE
same,"Area under the curve (AUC), paw withdrawal test (left side)",rats [3]; [5],41.94 and 82.35 and 118.40 and 104.74 and 73.61 and 86.69
same,"Area under the curve (AUC), paw withdrawal test (right side)",rats [3]; [5],41.65 and 79.45 and 111.20 and 93.88 and 75.91 and 110.34
same,"Area under the curve (AUC), paw withdrawal test (left side), Mean",rats [3]; [6],84.62 *
same,"Area under the curve (AUC), paw withdrawal test (right side), Mean",rats [3]; [6],85.40 *
same,duration of anesthesia/analgesia,rats [4],about 3 days
